Experiment [1] relates to RKO colon line. Kind of experiment: Cell growth inhibition assay (Cell Titer Glo), RKO. It is filed as cell-based. The conditions noted are these: Homo sapiens. The method, then:
(§1) Human colon tumor lines, Colo205, DLD1, HCC2998, HCT15, HCT8, HT29, KM-12, LS1034, LS174T, RKO, SW1463, SW480, SW837 and T84, and human breast tumor cell lines EFM19 and MDA-MB-175VII were cultured in RPMI 1640 medium containing 10% fetal bovine serum (FBS).
(§2) All cells were cultured for a minimum of 72 hours prior to cell plating. Cells were assayed in a 96-well tissue culture plate (NUNC 136102) of RPMI medium containing 10% FBS for all cells at 1,000 cells per well. Approximately 24 hours after plating, cells were exposed to ten, three-fold serial dilutions of compound or the combination of the two agents at a constant molar to molar ratio of 1:10 Compound A to Compound B in RPMI media containing 10% FBS. Cells were incubated in the presence of compounds for 3 days. ATP levels were determined by adding Cell Titer Glo® (Promega) according to the manufacturer's protocol. Briefly, Cell Titer Glo® was added each plate, incubated for 30 minutes then luminescent signal was read on the SpectraMax L plate reader with a 0.5 sec integration time.
(§3) Inhibition of cell growth was estimated after treatment with compound or combination of compounds for three days and comparing the signal to cells treated with vehicle (DMSO). Cell growth was calculated relative to vehicle (DMSO) treated control wells.
In general, a CI value <0.9, between 0.9 and 1.1, or >1.1 indicates synergy, additivity and antagonism, respectively. In general, the smaller the CI number, the greater is the strength of synergy.
(§4) The combination effects on the response scale were quantified by Excess Over Highest Single Agent (EOHSA) based on the concept of nonlinear blending as described in detail by Peterson and Novick (2007) and Peterson (2010) [(2;3) [Peterson and Novick, 2007; Peterson, 2010]. EOHSA values are defined as increases in improvement (here, in ‘percentage points’ (ppts) difference) produced by the combination over the best single agent at its component dose level for the combination. For single agent and combination treatments, cells were exposed to compounds at a fixed-dose-ratio, and dose response curves were fit to the experimental data and analyzed using regression models. At specified total dose levels of IC50 along the dose response curve, the dose combination (corresponding to IC50) was determined for making EOHSA statistical inferences.
In general terms: Cellular ATP, detected with luciferase, serves as a proxy for viable cell number.

Experiment [2] has as its system HT29. Briefly: Cell growth inhibition assay (Cell Titer Glo), HT29. It counts as cell-based, Human. The method, then: as §1
(§5) All cells were cultured for a minimum of 72 hours prior to cell plating. Cells were assayed in a 96-well tissue culture plate (NUNC 136102) of RPMI medium containing 10% FBS for all cells at 1,000 cells per well. […] ATP levels were determined by adding Cell Titer Glo® (Promega) according to the manufacturer's protocol. Briefly, Cell Titer Glo® was added each plate, incubated for 30 minutes then luminescent signal was read on the SpectraMax L plate reader with a 0.5 sec integration time.
(§6) Inhibition of cell growth was estimated after treatment with compound or combination of compounds for three days and comparing the signal to cells treated with vehicle (DMSO). Cell growth was calculated relative to vehicle (DMSO) treated control wells. […]
(§7) The combination effects on the response scale were quantified by Excess Over Highest Single Agent (EOHSA) based on the concept of nonlinear blending as described in detail by Peterson and Novick (2007) and Peterson (2010) [(2;3) [Peterson and Novick, 2007; Peterson, 2010]. […]

Experiment [3] has as its system Colo205. Briefly: Cell growth inhibition assay (Cell Titer Glo), Colo205. The conditions noted are these: for IC50: Homo sapiens, COLO 205, 72 h, Colo205 colon, BRAF V600E, KRAS WT, PIK3CA WT, 3 days, mean ± std, read-out: IC50 values, Single Agent. It counts as cell-based, Human. The method, then:
as §1, §2, §3
(§8) In general, a CI value <0.9, between 0.9 and 1.1, or >1.1 indicates synergy, additivity and antagonism, respectively. […]
as §4, with “EOHSA values are defined as increases in improvement (here, in ‘percentage points’ (ppts) difference) produced by the combination over the best single agent at its component dose level for the combination.” left out

Experiment [4] relates to DLD1. Briefly: Cell growth inhibition assay (Cell Titer Glo), DLD1. It is filed as cell-based. The conditions noted are these: Homo sapiens, DLD-1, 72 h; DLD1 colon; BRAF WT, KRAS G13D, PIK3CA E545K, D549N; 3 days; read-out: IC50 values, Single Agent. The procedure: as §1, §5, §6, §7
Experiment [5] has as its system HCC2998. Briefly: Cell growth inhibition assay (Cell Titer Glo), HCC2998. The conditions noted are these: Homo sapiens, HCC 2998, 72 h; HCC2998 colon; BRAF WT, KRAS A146T, PIK3CA WT; 3 days; read-out: IC50 values, Single Agent. It counts as cell-based. The method, then:
as §1, §5, §6, §7

Experiment [6] concerns HCT15. Briefly: Cell growth inhibition assay (Cell Titer Glo), HCT15. It counts as cell-based. The following applies: Homo sapiens, HCT-15, 72 h; HCT15 colon; BRAF WT, KRAS G13D, PIK3CA D549N, E545K; 3 days; mean ± std; read-out: IC50 values, Single Agent. The method, then: as §1, §5, §6, §7
The subject of experiment [7] is HCT8. Briefly: Cell growth inhibition assay (Cell Titer Glo), HCT8. The conditions noted are these: Homo sapiens, HCT-8, 72 h; HCT8 colon; BRAF WT, KRAS G13D, PIK3CA E545K; 3 days; mean ± std; read-out: IC50 values, Single Agent. It is filed as cell-based. The procedure:
as §1, §5, §6, §7

For experiment [8], the system named is KM-12. Kind of experiment: Cell growth inhibition assay (Cell Titer Glo), KM-12. The conditions noted are these: Homo sapiens, KM12, 72 h; KM-12 colon; BRAF WT, KRAS WT, PIK3CA WT; 3 days; mean ± std; read-out: IC50 values, Single Agent. It counts as cell-based. The procedure:
as §1, §5, §6, §7

Experiment [9] has as its system LS1034. Briefly: Cell growth inhibition assay (Cell Titer Glo), LS1034. The conditions noted are these: Homo sapiens, LS-1034, 72 h; LS1034 colon; BRAF WT, KRAS A146T, PIK3CA WT; 3 days; read-out: IC50 values, Single Agent. It is filed as cell-based. The procedure:
as §1, §5, §6, §7

The subject of experiment [10] is SW480. Kind of experiment: Cell growth inhibition assay (Cell Titer Glo), SW480. It counts as cell-based. The following applies: Homo sapiens, 72 h; SW480 colon; BRAF WT, KRAS G12C, PIK3CA WT; 3 days; mean ± std; read-out: IC50 values, Single Agent. The procedure: as §1, §5, §6, §7
For experiment [11], the system named is SW1463. Briefly: Cell growth inhibition assay (Cell Titer Glo), SW1463. It counts as cell-based. The following applies: Homo sapiens, 72 h; SW1463 colon; BRAF WT, KRAS G12C, PIK3CA WT; 3 days; read-out: IC50 values, Single Agent. The procedure:
as §1, §5, §6, §7

Experiment [12] relates to SW837. Kind of experiment: Cell growth inhibition assay (Cell Titer Glo), SW837. It is filed as cell-based. The following applies: Homo sapiens, 72 h; SW837 colon; BRAF WT, KRAS G12C, PIK3CA WT; 3 days; read-out: IC50 values, Single Agent. The procedure:
as §1, §5, §6, §7

Experiment [13] deals with T84. Kind of experiment: Cell growth inhibition assay (Cell Titer Glo), T84. It counts as cell-based. The following applies: Homo sapiens, 72 h; T84 colon; BRAF WT, KRAS G13D, PIK3CA E542K; 3 days; read-out: IC50 values, Single Agent. The method, then: as §1, §5, §6, §7
In experiment [14] the test system is EFM19. Kind of experiment: Cell growth inhibition assay (Cell Titer Glo), EFM19. It counts as cell-based. The conditions noted are these: Homo sapiens, EFM-19, 72 h; EFM19 breast; BRAF WT, KRAS WT, PIK3CA WT; 3 days; mean ± std; read-out: IC50 values, Single Agent. The method, then:
as §1, §5, §6, §7

In experiment [15] the test system is MDA-MB-175VII. Kind of experiment: Cell growth inhibition assay (Cell Titer Glo), MDA-MB-175VII. It is filed as cell-based. The following applies: Homo sapiens, 72 h; MDA-MB-175VII breast; BRAF WT, KRAS WT, PIK3CA H1049L; 3 days; mean ± std; read-out: IC50 values, Single Agent. The method, then: as §1, §5, §6, §7
In experiment [16] the test system is 10 colon lines without BRAF V600E mutation. Kind of experiment: Cell growth inhibition assay (Cell Titer Glo), colon lines without BRAF V600E mutation. It counts as cell-based. The following applies: Homo sapiens; the other 10 colon lines without BRAF V600E mutation (KRAS wild type or mutated); read-out: IC50s, compound alone. The procedure:
All cells were cultured for a minimum of 72 hours prior to cell plating. […] Cells were incubated in the presence of compounds for 3 days. ATP levels were determined by adding Cell Titer Glo® (Promega) according to the manufacturer's protocol. Briefly, Cell Titer Glo® was added each plate, incubated for 30 minutes then luminescent signal was read on the SpectraMax L plate reader with a 0.5 sec integration time.
as §3, §8
EOHSA values are defined as increases in improvement (here, in ‘percentage points’ (ppts) difference) produced by the combination over the best single agent at its component dose level for the combination. For single agent and combination treatments, cells were exposed to compounds at a fixed-dose-ratio, and dose response curves were fit to the experimental data and analyzed using regression models. At specified total dose levels of IC50 along the dose response curve, the dose combination (corresponding to IC50) was determined for making EOHSA statistical inferences.

Where [17] appears, read: 72 h, RKO colon, BRAF V600E, KRAS WT, PIK3CA H1047R, 3 days, mean ± std, read-out: IC50 values, Single Agent.
Where [18] appears, read: RKO colon line, BRAF V600E and PIK3CA H1047R, single agent, read-out: IC50, compound alone.

Like-named read-outs stand apart in the source and are kept apart here.

Experimental findings from patent US8796298B2, “Combination of a B-Raf inhibitor: N-{3-[5-(2-Amino-4-pyrimidinyl)-2-(1,1- dimethylethyl)-1,3-thiazol-4-yl]-2-fluorophenyl}-2,6-difluorobenzenesulfonamide and the Akt inhibitor: N-{ (1S)-2-amino-1-[(3- fluorophenyl)methyl]ethyl}-5-chIoro-4-(4-chIoro- 1 -methyl- 1 H-pyrazol-5-yl)-2-10 …” (GlaxoSmithKline LLC, priority 2009, dated 2014) are described below.

Turning to `CC(C)(C)c1nc(-c2cccc(NS(=O)(=O)c3c(F)cccc3F)c2F)c(-c2ccnc(N)n2)s1` [Compound A, N-{3-[5-(2-Amino-4-pyrimidinyl)-2-(1,1-dimethylethyl)-1,3-thiazol-4-yl]-2-fluorophenyl}-2,6-difluorobenzenesulfonamide], the IC50 in experiment [1] (setting [17]) is 4.2 ± 4.03 µM; in experiment [1] (setting [18]), > 1 µM; in experiment [3], 0.013 ± 0.004 µM; in experiment [4] it was > 10 µM; in [5], > 10 µM; in experiment [6] it was > 10 µM. The IC50 in [7], in experiment [8], in experiment [9], in [10], in experiment [11] and in experiment [12] was > 10 µM in each case. In addition, the IC50 in [13], in experiment [14], in experiment [15] and in [16] was > 10 µM each time. The “sensitivity to compound alone in words” value in experiment [2] (HT29, BRAF V600E mutation line) is reported as “highly sensitive”; in experiment [3] (Colo205, BRAF V600E mutation line), “highly sensitive”.

`Cn1ncc(Cl)c1-c1cc(C(=O)N[C@H](CN)Cc2cccc(F)c2)sc1Cl` [Compound B, N-{(1S)-2-amino-1-[(3-fluorophenyl)methyl]ethyl}-5-chloro-4-(4-chloro-1-methyl-1H-pyrazol-5-yl)-2-thiophenecarboxamide]: the IC50 in experiment [1] (setting [17]) is 1.35 ± 0.614 µM; in experiment [1] (setting [18]), > 1 µM; in [2] (Homo sapiens, HT-29, 72 h, HT29 colon, BRAF V600E, KRAS WT, PIK3CA P449T, 3 days, mean ± std, read-out: IC50 values, Single Agent), 1.43 ± 0.073 µM; in [3], 3.29 ± 0.242 µM; in experiment [4], > 10 µM; in experiment [5] it was > 10 µM. Besides, the IC50 in [6] was 7.77 ± 1.69 µM; in [7] it was 1.55 ± 0.051 µM; in experiment [8], 4.45 ± 4.2 µM; in [9], > 10 µM; in [10] it was 6.08 ± 0.154 µM; in [11], > 10 µM. Moreover, the IC50 in [12] was > 10 µM; in experiment [13] it was > 10 µM; in experiment [14], 0.444 ± 0.285 µM; in [15], 0.844 ± 0.033 µM.
